Here are results for 18 compounds from PubChem BioAssay AID248 (DTP/NCI, 2004).

This experiment has as its system L1210 leukemia ip in BDF1 mice, survival T/C. Description: NCI In Vivo Anticancer Drug Screen. Data for tumor model L1210 Leukemia (intraperitoneal) in B6D2F1 (BDF1) mice. The following applies: endpoint: mean survival time, higher = longer survival. The essentials:
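Antitumor effect is assessed in tumor-bearing animals. Survival in the compound arm is compared with a vehicle-dosed control arm and expressed as their quotient.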

[1] abbreviates: dose: 100.0 mg/kg/injection, schedule: Q01DX009 (ip), vehicle: Klucel (hydroxypropylcellulose) (HPC).
[2] abbreviates: dose: 200.0 mg/kg/injection, schedule: Q01DX009 (ip), vehicle: Klucel (hydroxypropylcellulose) (HPC).
Setting [3] is: dose: 400.0 mg/kg/injection, schedule: Q01DX009 (ip), vehicle: Klucel (hydroxypropylcellulose) (HPC).
Where [4] appears, read: dose: 100.0 mg/kg/injection, schedule: Q04DX003 (ip), vehicle: saline with Tween-80.
Setting [5] is: dose: 200.0 mg/kg/injection, schedule: Q04DX003 (ip), vehicle: saline with Tween-80.
[6] abbreviates: dose: 100.0 mg/kg/injection, schedule: Q04DX003 (ip), vehicle: saline.
The mark [7] stands for this setting: dose: 200.0 mg/kg/injection, schedule: Q04DX003 (ip), vehicle: saline.
The mark [8] stands for this setting: dose: 400.0 mg/kg/injection, schedule: Q04DX003 (ip), vehicle: saline.
The mark [9] stands for this setting: dose: 100.0 mg/kg/injection, schedule: Q01DX001 (ip), vehicle: other.
The mark [10] stands for this setting: dose: 200.0 mg/kg/injection, schedule: Q01DX001 (ip), vehicle: other.
The mark [11] stands for this setting: dose: 400.0 mg/kg/injection, schedule: Q01DX001 (ip), vehicle: other.

Structures are written as SMILES. Values joined by “and” are separate entries in the source; they are usually repeats but may differ in a detail not shown here. Equal values may be shown once. Toxic doses and inconclusive results are not listed.

With `CO[C@H]1/C=C/O[C@@]2(C)Oc3c(C)c(O)c4c(O)c(c(/C=N/N5CCNCC5)c(O)c4c3C2=O)NC(=O)/C(C)=C\C=C\[C@H](C)[C@H](O)[C@@H](C)[C@@H](O)[C@@H](C)C(OC(C)=O)[C@@H]1C` (stereo partly specified), the T/C by setting is: (dose: 25.0 mg/kg/injection, schedule: Q01DX001 (ip), vehicle: water) 98 % of control; (dose: 25.0 mg/kg/injection, schedule: Q01DX009 (ip), vehicle: Klucel (hydroxypropylcellulose) (HPC)) 100 % of control; (dose: 50.0 mg/kg/injection, schedule: Q01DX001 (ip), vehicle: water) 102 % of control; (dose: 50.0 mg/kg/injection, schedule: Q01DX009 (ip), vehicle: Klucel (hydroxypropylcellulose) (HPC)) 94 % of control; (dose: 100.0 mg/kg/injection, schedule: Q01DX001 (ip), vehicle: water) 101 % of control; under setting [1], 94 % of control. The T/C runs as follows: (dose: 200.0 mg/kg/injection, schedule: Q01DX001 (ip), vehicle: water) 106 % of control; under setting [2], 100 % of control; (dose: 400.0 mg/kg/injection, schedule: Q01DX001 (ip), vehicle: water) 102 % of control.

For `CCOC(=O)CCc1c[nH]c(C)c1C(=O)C(=O)OCC`, the T/C by setting is: (dose: 100.0 mg/kg/injection, schedule: Q01DX001 (ip), vehicle: Klucel (hydroxypropylcellulose) (HPC)) 95 % of control; (dose: 100.0 mg/kg/injection, schedule: Q04DX003 (ip), vehicle: Klucel (hydroxypropylcellulose) (HPC)) 93 % of control; (dose: 200.0 mg/kg/injection, schedule: Q01DX001 (ip), vehicle: Klucel (hydroxypropylcellulose) (HPC)) 98 % of control; (dose: 200.0 mg/kg/injection, schedule: Q04DX003 (ip), vehicle: Klucel (hydroxypropylcellulose) (HPC)) 102 % of control; (dose: 400.0 mg/kg/injection, schedule: Q01DX001 (ip), vehicle: Klucel (hydroxypropylcellulose) (HPC)) 95 % of control; (dose: 400.0 mg/kg/injection, schedule: Q04DX003 (ip), vehicle: Klucel (hydroxypropylcellulose) (HPC)) 96 % of control.

With `NC(=S)Nc1ccc(Cc2ccc(NC(N)=S)cc2)cc1`, the T/C runs as follows: under setting [1], 98 % of control; under setting [2], 91 % of control; under setting [3], 88 % of control.

In the case of `Nc1ccc(Cc2ccc(N)cc2)cc1`, the T/C is, setting by setting: (dose: 25.0 mg/kg/injection, schedule: Q01DX009 (ip), vehicle: gum acacia) 95 % of control; (dose: 50.0 mg/kg/injection, schedule: Q01DX009 (ip), vehicle: gum acacia) 105 % of control; (dose: 100.0 mg/kg/injection, schedule: Q01DX009 (ip), vehicle: gum acacia) 105 % of control and 112 % of control.

For the compound `O=C(Nc1cc([N+](=O)[O-])ccc1O)Nc1cccc(Cl)c1Cl`, the T/C was 88 % of control under setting [1], 100 % of control under setting [2] and 92 % of control under setting [3].

As for `Cc1c2ccccc2c(CSC(=N)N)c2ccccc12`, the T/C is 119 % of control (dose: 4.0 mg/kg/injection, schedule: Q01DX009 (ip), vehicle: saline sonified); 112 % of control (dose: 4.0 mg/kg/injection, schedule: Q01DX009 (ip), vehicle: saline with Tween-80); 120 % of control (dose: 4.0 mg/kg/injection, schedule: Q01DX009 (ip), vehicle: saline); 109 % of control (dose: 6.25 mg/kg/injection, schedule: Q01DX009 (ip), vehicle: saline); 98 % of control (dose: 6.25 mg/kg/injection, schedule: Q04DX003 (ip), vehicle: saline); 117 % of control (dose: 8.0 mg/kg/injection, schedule: Q01DX009 (ip), vehicle: saline sonified). Also, the T/C runs as follows: (dose: 8.0 mg/kg/injection, schedule: Q01DX009 (ip), vehicle: saline with Tween-80) 119 % of control; (dose: 12.5 mg/kg/injection, schedule: Q01DX009 (ip), vehicle: saline sonified) 150 % of control; (dose: 12.5 mg/kg/injection, schedule: Q01DX009 (ip), vehicle: saline with Tween-80) 108 % of control; (dose: 12.5 mg/kg/injection, schedule: Q01DX009 (ip), vehicle: saline) 123 % of control; (dose: 12.5 mg/kg/injection, schedule: Q04DX003 (ip), vehicle: saline) 108 % of control; (dose: 18.75 mg/kg/injection, schedule: Q01DX009 (ip), vehicle: saline sonified) 95 % of control. The T/C is, setting by setting: (dose: 18.75 mg/kg/injection, schedule: Q01DX009 (ip), vehicle: saline with Tween-80) 87 % of control; (dose: 25.0 mg/kg/injection, schedule: Q01DX009 (ip), vehicle: saline) 93 % of control; (dose: 25.0 mg/kg/injection, schedule: Q04DX003 (ip), vehicle: saline) 114 % of control and 118 % of control.

For the compound `CNC(=O)Cc1ccc2cc(OC)c(OC)cc2c1`, the T/C was 95 % of control under setting [4]; 101 % of control under setting [5]; 91 % of control (dose: 400.0 mg/kg/injection, schedule: Q04DX003 (ip), vehicle: saline with Tween-80).

Regarding `COc1ccc(CCN=C(C)C2C3CC4CC(C3)CC2C4)cc1OC` (stereo unspecified), the T/C is, setting by setting: under setting [6], 90 % of control; under setting [7], 97 % of control; under setting [8], 90 % of control.

As for `CCCC(Cc1cccs1)C(=O)O` (stereo unspecified), the T/C by setting is: under setting [9], 101 % of control; under setting [10], 97 % of control; under setting [11], 97 % of control.

Regarding `CCCCCCCCC(=O)Nc1nc2nc[nH]c2c(=O)[nH]1`, the T/C was 94 % of control under setting [9]; 94 % of control under setting [1]; 86 % of control under setting [10]; 90 % of control under setting [2]; 86 % of control under setting [11]; 90 % of control under setting [3].

With `CCCCCCCCC1CCCCC1`, the T/C (dose: 50.0 mg/kg/injection, schedule: Q04DX002 (sc), vehicle: olive oil, sesame oil, peanut oil) is 105 % of control; the T/C (dose: 100.0 mg/kg/injection, schedule: Q04DX002 (sc), vehicle: olive oil, sesame oil, peanut oil) is 109 % of control; the T/C (dose: 200.0 mg/kg/injection, schedule: Q04DX002 (sc), vehicle: olive oil, sesame oil, peanut oil) is 109 % of control.

Turning to `NC(=O)CC(NC(=O)C(F)(F)F)C(=O)O` (stereo unspecified), the T/C was 98 % of control (dose: 100.0 mg/kg/injection, schedule: Q04DX003 (ip), vehicle: carboxymethylcellulose (CMC)); 98 % of control (dose: 200.0 mg/kg/injection, schedule: Q04DX003 (ip), vehicle: carboxymethylcellulose (CMC)); 88 % of control (dose: 400.0 mg/kg/injection, schedule: Q04DX003 (ip), vehicle: carboxymethylcellulose (CMC)).

For `Cc1ccc(C(=O)C(F)(F)C(F)(F)C(F)(F)C(F)(F)C(F)(F)C(F)(F)C(F)(F)F)cc1`, the T/C runs as follows: (dose: 100.0 mg/kg/injection, schedule: Q01DX001 (ip), vehicle: saline) 105 % of control; under setting [6], 93 % of control; (dose: 200.0 mg/kg/injection, schedule: Q01DX001 (ip), vehicle: saline) 102 % of control; under setting [7], 95 % of control; (dose: 400.0 mg/kg/injection, schedule: Q01DX001 (ip), vehicle: saline) 103 % of control; under setting [8], 92 % of control.

As to `CCOC(=O)C1CCCNC1=O` (stereo unspecified), the T/C is 105 % of control under setting [6], 116 % of control under setting [7] and 108 % of control under setting [8].

For `O=C(Nc1ccc(S(=O)(=O)O)c2ccccc12)c1ccc(C(=O)Nc2ccc(S(=O)(=O)O)c3ccccc23)cc1`, the T/C is 92 % of control (dose: 62.5 mg/kg/injection, schedule: Q01DX Z (ip), vehicle: carboxymethylcellulose (CMC)); 89 % of control (dose: 125.0 mg/kg/injection, schedule: Q01DX Z (ip), vehicle: carboxymethylcellulose (CMC)); 90 % of control (dose: 250.0 mg/kg/injection, schedule: Q01DX Z (ip), vehicle: carboxymethylcellulose (CMC)); 89 % of control (dose: 500.0 mg/kg/injection, schedule: Q01DX Z (ip), vehicle: carboxymethylcellulose (CMC)).

As for `CCOC(=O)/C(C)=C\C=C(\C)CCC=C(C)C`, the T/C by setting is: under setting [1], 104 % of control; under setting [2], 102 % of control; under setting [3], 104 % of control.

As to `NC(=O)N/N=C/C(=O)O`, the T/C is, setting by setting: (dose: 100.0 mg/kg/injection, schedule: Q04DX002 (ip), vehicle: Klucel (hydroxypropylcellulose) (HPC)) 96 % of control; (dose: 200.0 mg/kg/injection, schedule: Q04DX002 (ip), vehicle: Klucel (hydroxypropylcellulose) (HPC)) 104 % of control; (dose: 400.0 mg/kg/injection, schedule: Q04DX002 (ip), vehicle: Klucel (hydroxypropylcellulose) (HPC)) 104 % of control.

In the case of `N#Cc1ccc(OCc2nc(N)nc(N)c2-c2ccc(Cl)cc2)cc1`, the T/C runs as follows: under setting [4], 104 % of control; under setting [5], 100 % of control.
